What was measured:
[1] = system: Transgenic MM1-cycD2 cell lines; test: Aphidicolin block/release of transgenic MM1-cycD2 cell lines; format: cell-based, Arabidopsis thaliana; conditions: compared with non transgenic MM1 cell lines
Description: To re-establish liquid cultures of putative transgenic MM1-calli, callus tissue was transferred to a 55 mm petridish, carefully squeezed with a pipet tip and resuspended in 10 ml fresh MSS-medium (0.5 mg/l NM, 0.05 mg/l kinetin, 100 μg/ml kanamycin). The callus derived cell suspensions were incubated at 120 rpm, 23° C. under continuous light conditions in 100 ml Erlenmeyer flasks. After 10 days cultivation, 10 ml MSS-medium (0.5 mg/l NM, 0.05 mg/l kinetin) was added to the suspension cultures and left for further 7 days under conditions as above. 5 ml putative transgenic cell suspension was subcultured into 50 ml fresh MSS-medium (0.5 mg/l NM, 0.05 mg/l kinetin, 100 μg/ml kanamycin). This subculturing procedure was repeated twice at 7 days intervals in the same medium. Subsequent subculturing was carried out weekly into fresh MSS-medium (0.5 mg/l NAA, 0.05 mg/l kinetin without kanamycin selection), adjusting the transferred volume of cells to produce an inoculum of approximately the same as WT-MM1 culture. In the example of putative transgenic MM1-cycD2 cell suspensions, these were maintained by subculturing weekly 3.5 ml into 100 ml fresh MSS-medium (0.5 mg/l NAA, 0.05 mg/l kinetin) in 300 ml Erlenmeyer flasks. […] Putative transgenic calli or the suspension cultures thereof were analyzed using PCR and appropriate primers allowing to detect the cycD2 coding region. […]

[2] = system: Arabidopsis cell suspension culture MM1; test: Aphidicolin (4.16 μg/ml, 21.5 hrs) block/release of MM1: proportion of G1, S and G2 cells by flow cytometry; format: cell-based, Arabidopsis thaliana
Description: Arabidopsis cell suspension culture MM1 (DSM 13563) was used for synchronisation experiments. The suspension culture was maintained by sub-culturing weekly 10 ml into 200 ml of fresh MSS-medium (MS-salt, 3% sucrose, 0.5 mg/l NAA, 0.05 mg/l kinetin) which is cultured in 500 ml narrow neck Erlenmeyer flasks, of which the opening is covered with double layer of aluminium foil and loosely covered with Saran wrap and which are placed on a GYROTORY® Shaker (New Brunswick Scientific). The cell suspension culture was grown under continuous light conditions (24 hrs a day); Philips lamps were used with the specification TLD HF 50W/840; light level is in average 1300 Lux and the cell suspension culture is rotated at 120 rpm at a temperature varying between 23-25° C. To arrest cells reversibly in late G1/early S-phase, cells were blocked with aphidicolin according to Nagata et al. 1992 (with slight modifications), 40 ml of an early stationary phase cell suspension culture was subcultured into 200 ml MSS-medium, 4.16 μg/ml aphidicolin was added to block cells at the end of G1/early S-phase, and the culture was incubated at 23° C., 120 rpm in the conditions as described above for MM1, for a period of 21.5 hrs. To remove aphidicolin, cells were washed through a nylon mesh (mesh size 47 μm) with 11 MSS-medium by vigorously shaking and resuspended in MSS-medium. The cells were vigorously shaken, for a washing time of about 14 min, and then centrifuged at 150Orpm for 1 min (387 rcf) with the brake switched off.
The level of synchronicity of the Arabidopsis cell suspension culture MM1 was analysed by flow cytometry. The cell pellet from 5 ml of cell suspension culture was frozen in liquid nitrogen. To analyse the DNA content, the High Resolution Kit for Plant ploidy analysis (Type P) (Partec, Cat. No. 06-5-4004) was used, containing solution A (to release cell nuclei) and solution B (to stain DNA with DAPI). A sample of the frozen cell pellet was transferred into a small petri-dish (5 cm diameter), 150 μl of solution A was added, and the sample was carefully chopped with vertical motion of a sharp razor blade. An additional 150 μl of solution A was added, the cell suspension pipetted up and down for several time before leaving for approximately 2 min at RT. The released cell nuclei were filtered through a 50 μm nylon mesh (Partec, CellTrics 50 μm, Cat. No. 06-4-2317) and 1 ml of solution B was added to the filtrate. On average 8200 particles were counted with a flow cytometer (PASIII; Partec GmbH, Germany), using HBO lamp excitation (Partec, mercury lamp HBO 100 long life, 100W) and detection of emission using a blue filter. Cell cycle phases were analysed using Multicycle for Windows (Phoenix Flow Systems, San Diego, Calif.). Flow cytometry results are not corrected for the mitotic cells (which are not measured by this method).

With C[C@@]1(CO)[C@H](O)CC[C@@]2(C)[C@H]1CC[C@H]1C[C@@H]3C[C@@]12CC[C@]3(O)CO [aphidicolin] the “synchronisation by aphidicolin block/release” value [1] was “could be synchronized in a similar way as non transgenic MM1 cell lines”, the “G1 (%) MM1” value ([2]; 0 h after aphidicolin removal) was 50.6% and the “G2 (%) MM1” value ([2]; 0 h after aphidicolin removal) was 19.3%. The “S (%) MM1” value ([2]; 0 h after aphidicolin removal) was 30.1%, the “G1 (%) MM1” value ([2]; 1 h after aphidicolin removal) was 23.7% and the “G2 (%) MM1” value ([2]; 1 h after aphidicolin removal) was 11.4%. For the same molecule, the “S (%) MM1” value ([2]; 1 h after aphidicolin removal) was 64.9%, the “G1 (%) MM1” value ([2]; 2 h after aphidicolin removal) was 23.8% and the “G2 (%) MM1” value ([2]; 2 h after aphidicolin removal) was 11.4%. The “S (%) MM1” value ([2]; 2 h after aphidicolin removal) was 64.8%, the “G1 (%) MM1” value ([2]; 3 h after aphidicolin removal) was 27.2% and the “G2 (%) MM1” value ([2]; 3 h after aphidicolin removal) was 10.4%. For the same molecule, the “S (%) MM1” value ([2]; 3 h after aphidicolin removal) was 62.5%, the “G1 (%) MM1” value ([2]; 4 h after aphidicolin removal) was 23.2% and the “G2 (%) MM1” value ([2]; 4 h after aphidicolin removal) was 44.8%. The “S (%) MM1” value ([2]; 4 h after aphidicolin removal) was 32%, the “G1 (%) MM1” value ([2]; 5 h after aphidicolin removal) was 19.9% and the “G2 (%) MM1” value ([2]; 5 h after aphidicolin removal) was 63.8%. For the same molecule, the “S (%) MM1” value ([2]; 5 h after aphidicolin removal) was 16.3%, the “G1 (%) MM1” value ([2]; 6 h after aphidicolin removal) was 16.1% and the “G2 (%) MM1” value ([2]; 6 h after aphidicolin removal) was 83.9%. For the same molecule, the “S (%) MM1” value ([2]; 6 h after aphidicolin removal) was 0%, the “G1 (%) MM1” value ([2]; 7 h after aphidicolin removal) was 13.8% and the “G2 (%) MM1” value ([2]; 7 h after aphidicolin removal) was 85.7%. For the same molecule, the “S (%) MM1” value ([2]; 7 h after aphidicolin removal) was 0.5%, the “G1 (%) MM1” value ([2]; 8 h after aphidicolin removal) was 10.9% and the “G2 (%) MM1” value ([2]; 8 h after aphidicolin removal) was 88.8%. The “S (%) MM1” value ([2]; 8 h after aphidicolin removal) was 0.3%, the “G1 (%) MM1” value ([2]; 9 h after aphidicolin removal) was 11.1% and the “G2 (%) MM1” value ([2]; 9 h after aphidicolin removal) was 88.9%. The “S (%) MM1” value ([2]; 9 h after aphidicolin removal) was 0%, the “G1 (%) MM1” value ([2]; 10 h after aphidicolin removal) was 10.8% and the “G2 (%) MM1” value ([2]; 10 h after aphidicolin removal) was 89.2%. For the same molecule, the “S (%) MM1” value ([2]; 10 h after aphidicolin removal) was 0%, the “G1 (%) MM1” value ([2]; 11 h after aphidicolin removal) was 13.4% and the “G2 (%) MM1” value ([2]; 11 h after aphidicolin removal) was 86.6%. For the same molecule, the “S (%) MM1” value ([2]; 11 h after aphidicolin removal) was 0%, the “G1 (%) MM1” value ([2]; 12 h after aphidicolin removal) was 15.1% and the “G2 (%) MM1” value ([2]; 12 h after aphidicolin removal) was 84.1%. For the same molecule, the “S (%) MM1” value ([2]; 12 h after aphidicolin removal) was 0.8%, the “G1 (%) MM1” value ([2]; 13 h after aphidicolin removal) was 22.9% and the “G2 (%) MM1” value ([2]; 13 h after aphidicolin removal) was 77.1%. For the same molecule, the “S (%) MM1” value ([2]; 13 h after aphidicolin removal) was 0%, the “G1 (%) MM1” value ([2]; 14 h after aphidicolin removal) was 31.5% and the “G2 (%) MM1” value ([2]; 14 h after aphidicolin removal) was 68.5%. For the same molecule, the “S (%) MM1” value ([2]; 14 h after aphidicolin removal) was 0%, the “G1 (%) MM1” value ([2]; 15 h after aphidicolin removal) was 38.6% and the “G2 (%) MM1” value ([2]; 15 h after aphidicolin removal) was 61.3%. For the same molecule, the “S (%) MM1” value ([2]; 15 h after aphidicolin removal) was 0.2%, the “G1 (%) MM1” value ([2]; 16 h after aphidicolin removal) was 33.4% and the “G2 (%) MM1” value ([2]; 16 h after aphidicolin removal) was 59.6%. For the same molecule, the “S (%) MM1” value ([2]; 16 h after aphidicolin removal) was 6.9%, the “G1 (%) MM1” value ([2]; 17 h after aphidicolin removal) was 36.3% and the “G2 (%) MM1” value ([2]; 17 h after aphidicolin removal) was 57.5%. For the same molecule, the “S (%) MM1” value ([2]; 17 h after aphidicolin removal) was 6.2%, the “G1 (%) MM1” value ([2]; 18 h after aphidicolin removal) was 35.7% and the “G2 (%) MM1” value ([2]; 18 h after aphidicolin removal) was 56.1%. The “S (%) MM1” value ([2]; 18 h after aphidicolin removal) was 8.2%, the “G1 (%) MM1” value ([2]; 19 h after aphidicolin removal) was 38.4% and the “G2 (%) MM1” value ([2]; 19 h after aphidicolin removal) was 55.6%. For the same molecule, the “S (%) MM1” value ([2]; 19 h after aphidicolin removal) was 6%, the “G1 (%) MM1” value ([2]; 20 h after aphidicolin removal) was 41.1% and the “G2 (%) MM1” value ([2]; 20 h after aphidicolin removal) was 48.8%. For the same molecule, the “S (%) MM1” value ([2]; 20 h after aphidicolin removal) was 10%.
